In ChEMBL document CHEMBL1201862, “PubChem BioAssay data set” (2004):
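Interpolation was linear, between the two tested concentrations surrounding the appropriate level; five concentrations were tested over 48 hours in 96-well plates. Abbreviation: GI50, concentration required for 50% inhibition of growth.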 The source made the active and inactive calls. Rule as the data show it: active = GI50 up to about 1.1 µM and inactive = higher.

How the values were obtained:
Experiment in all cases: DTP human tumour cell line panel, 48 h
786-0 = system: 786-0
A549 = system: A549
HOP-62 = system: HOP-62
LOX IMVI = system: LOX IMVI
NCI-H460 = system: NCI-H460
NCI-H522 = system: NCI-H522
OVCAR-3 = system: OVCAR-3
RPMI-8226 = system: RPMI-8226
RXF 393 = system: RXF 393
SF-268 = system: SF-268
SF-539 = system: SF-539
SK-MEL-28 = system: SK-MEL-28
SNB-19 = system: SNB-19
UO-31 = system: UO-31
IGROV-1 = system: IGROV-1
SK-OV-3 = system: SK-OV-3

| SMILES | GI50 (786-0) | GI50 (A549) | GI50 (HOP-62) | GI50 (LOX IMVI) | GI50 (NCI-H460) | GI50 (NCI-H522) | GI50 (OVCAR-3) | GI50 (RPMI-8226) | GI50 (RXF 393) | GI50 (SF-268) | GI50 (SF-539) | GI50 (SK-MEL-28) | GI50 (SNB-19) | GI50 (UO-31) | GI50 (IGROV-1) | GI50 (SK-OV-3) |
| --- | --- | --- | --- | --- | --- | --- | --- | --- | --- | --- | --- | --- | --- | --- | --- | --- |
| CCCn1c(SCC)c2ccccc2c1-c1nc(F)nc(F)n1 | > 100 µM (inactive) | > 100 µM (inactive) | > 100 µM (inactive) | > 100 µM (inactive) | > 100 µM (inactive) | > 100 µM (inactive) | > 100 µM (inactive) | > 100 µM (inactive) | > 100 µM (inactive) | > 100 µM (inactive) | > 100 µM (inactive) | > 100 µM (inactive) | > 100 µM (inactive) | > 100 µM (inactive) |  |  |
| CC(C)c1cccc(=O)c(O)c1 | 3.4 µM (inactive) | 2.83 µM (inactive) | 5.3 µM (inactive) | 2.42 µM (inactive) | 2.27 µM (inactive) | 1.39 µM (inactive) | 1.24 µM (inactive) | 2.14 µM (inactive) | 0.299 µM (active) | 1.38 µM (inactive) | 3.21 µM (inactive) | 1.5 µM (inactive) | 7.24 µM (inactive) | 3.94 µM (inactive) | 7.8 µM (inactive) | 15.8 µM (inactive) |
| N#CCc1c(-c2ccccc2)n(S(=O)(=O)c2ccccc2)c2ccccc12 | > 100 µM (inactive) | > 100 µM (inactive) | 36.1 µM (inactive) |  | > 100 µM (inactive) | > 10 µM (inactive) | > 100 µM (inactive) | 31.2 µM (inactive) |  | > 100 µM (inactive) | > 100 µM (inactive) | > 100 µM (inactive) | 63.5 µM (inactive) | 14.8 µM (inactive) | > 100 µM (inactive) |  |
| COc1ccc(C(=O)C(C(=O)CCC(=O)Nc2cccc(Cl)c2)c2ccc(OC)cc2)cc1 (stereo not drawn) | > 100 µM (inactive) | > 100 µM (inactive) | > 100 µM (inactive) |  | > 100 µM (inactive) | > 100 µM (inactive) | > 100 µM (inactive) | > 100 µM (inactive) |  | > 100 µM (inactive) | > 100 µM (inactive) | > 100 µM (inactive) | > 100 µM (inactive) | > 100 µM (inactive) | > 100 µM (inactive) | > 100 µM (inactive) |
| Cc1cc2c(cc1C)[n+]([O-])c(C(=O)C/C(=N/OCCCc1ccccc1)C(=O)Nc1cc(Cl)ccc1Cl)c(C)[n+]2[O-] | > 100 µM (inactive) | > 100 µM (inactive) | > 100 µM (inactive) | > 100 µM (inactive) | > 100 µM (inactive) | > 100 µM (inactive) | > 100 µM (inactive) |  | > 100 µM (inactive) | > 100 µM (inactive) | > 100 µM (inactive) | > 100 µM (inactive) | > 100 µM (inactive) |  | > 100 µM (inactive) | > 100 µM (inactive) |
| NNC(=S)N/N=C/C(Cl)=C(\Cl)C(=O)O | > 100 µM (inactive) | > 100 µM (inactive) |  | > 100 µM (inactive) | > 100 µM (inactive) | 0.228 µM (active) | > 100 µM (inactive) | > 100 µM (inactive) | > 100 µM (inactive) | > 100 µM (inactive) | > 100 µM (inactive) | > 100 µM (inactive) | > 100 µM (inactive) | > 100 µM (inactive) | > 100 µM (inactive) |  |
| C/C(CC(=O)Nc1ccc(C)cc1)=N\NC(N)=S | > 100 µM (inactive) | > 100 µM (inactive) | > 100 µM (inactive) | 54.8 µM (inactive) | > 100 µM (inactive) | 94 µM (inactive) | > 100 µM (inactive) | > 100 µM (inactive) | > 100 µM (inactive) | > 100 µM (inactive) | > 100 µM (inactive) | > 100 µM (inactive) |  | > 100 µM (inactive) | > 100 µM (inactive) | > 100 µM (inactive) |
| [N-]=[N+]=NC1(Cc2ccccc2)C(=O)c2cccc3c2N(CCC3)C1=O (stereo not drawn) | > 100 µM (inactive) | > 100 µM (inactive) | > 100 µM (inactive) | > 100 µM (inactive) | > 100 µM (inactive) | > 100 µM (inactive) |  | > 100 µM (inactive) | > 100 µM (inactive) | > 100 µM (inactive) | > 100 µM (inactive) | > 100 µM (inactive) |  | > 100 µM (inactive) | > 100 µM (inactive) | 40.3 µM (inactive) |
| CCOC(=O)C1=C(C)N2CCOC2(C)C(C(=O)OC)C1c1cccc(Cl)c1 (stereo not drawn) | > 100 µM (inactive) | > 100 µM (inactive) | > 100 µM (inactive) | > 100 µM (inactive) | > 100 µM (inactive) | 88.7 µM (inactive) | > 100 µM (inactive) | > 100 µM (inactive) |  | > 100 µM (inactive) | > 100 µM (inactive) | > 100 µM (inactive) | > 100 µM (inactive) | > 100 µM (inactive) | > 100 µM (inactive) | > 100 µM (inactive) |
| COC1(OC)CC2OC1C1N=NN(C(=O)OC(C)(C)C)C21 (stereo not drawn) | > 100 µM (inactive) | > 100 µM (inactive) | > 100 µM (inactive) | > 100 µM (inactive) | > 100 µM (inactive) |  | 49.3 µM (inactive) | 52.7 µM (inactive) | > 100 µM (inactive) | > 100 µM (inactive) | > 100 µM (inactive) | > 100 µM (inactive) |  | > 100 µM (inactive) | > 100 µM (inactive) | > 100 µM (inactive) |
| COc1ccc2c(c1OC)C(C=C(c1ccccc1)c1ccccc1)CN(C)C2 (stereo not drawn) | 16.7 µM (inactive) | 30 µM (inactive) | 20.6 µM (inactive) |  | 11.7 µM (inactive) | 17.2 µM (inactive) | 12.8 µM (inactive) | 18.2 µM (inactive) |  | 27.1 µM (inactive) | 21.9 µM (inactive) | 22.4 µM (inactive) | 29.9 µM (inactive) | 20 µM (inactive) | 14.8 µM (inactive) | 27.4 µM (inactive) |
| O=C1CC(c2c(-c3ccccc3)[nH]c3ccccc23)C(=O)N1c1ccccc1 (stereo not drawn) | > 100 µM (inactive) | 41.8 µM (inactive) | 25.6 µM (inactive) |  | 56.2 µM (inactive) |  | 61.5 µM (inactive) | 37.6 µM (inactive) | 27.4 µM (inactive) |  | > 100 µM (inactive) | > 100 µM (inactive) |  | 25.4 µM (inactive) | > 100 µM (inactive) | > 100 µM (inactive) |
| CCOC(=O)/C(C#N)=C(O)/C(=C/c1ccccc1Cl)NC(=O)c1ccccc1 | > 100 µM (inactive) | > 100 µM (inactive) | > 100 µM (inactive) |  | > 100 µM (inactive) | 0.0195 µM (active) | > 100 µM (inactive) | 26.6 µM (inactive) |  | > 100 µM (inactive) | > 100 µM (inactive) | > 100 µM (inactive) | > 100 µM (inactive) | > 100 µM (inactive) | > 100 µM (inactive) | > 100 µM (inactive) |
| CCOC(=O)C1=C(C)N(NC(=O)Nc2ccccc2)C2(N)N(NC(=O)Nc3ccccc3)C(C)=C(C(=O)OCC)C12C(=O)OCC (stereo not drawn) | 45.3 µM (inactive) | 38.3 µM (inactive) | 28.6 µM (inactive) | 36.2 µM (inactive) | 37.9 µM (inactive) | 70 µM (inactive) | 49.2 µM (inactive) | > 100 µM (inactive) | 3.09 µM (inactive) | 24.8 µM (inactive) | 22.1 µM (inactive) | 34.4 µM (inactive) | 38.9 µM (inactive) | 61.7 µM (inactive) | > 100 µM (inactive) | 29.9 µM (inactive) |
| O=C1c2c(c3c4ccccc4n4c3c3c2c2ccccc2n3C/C=C\C4)C(=O)N1Cc1ccccc1 | > 100 µM (inactive) | > 100 µM (inactive) | > 100 µM (inactive) | > 100 µM (inactive) | > 100 µM (inactive) | > 100 µM (inactive) | > 100 µM (inactive) | > 100 µM (inactive) | > 100 µM (inactive) |  | > 100 µM (inactive) | > 100 µM (inactive) | > 100 µM (inactive) | > 100 µM (inactive) | > 100 µM (inactive) | > 100 µM (inactive) |
| Cc1[nH]c2ccccc2c1C1Cc2ccccc2N1C(=O)/C=C\C(=O)O (stereo not drawn) | 38.7 µM (inactive) | > 100 µM (inactive) | 31.3 µM (inactive) | 18.6 µM (inactive) | > 100 µM (inactive) | 27.6 µM (inactive) | 55.2 µM (inactive) |  | 30.9 µM (inactive) | 36.3 µM (inactive) | 28.4 µM (inactive) |  | 23.3 µM (inactive) | > 100 µM (inactive) | 58.1 µM (inactive) | > 100 µM (inactive) |
| Cc1ccc(SSCCCCS(=O)O)cc1 | 32 µM (inactive) | 18.5 µM (inactive) | 28.7 µM (inactive) | 9.79 µM (inactive) | 32.5 µM (inactive) | 12.5 µM (inactive) | 17.8 µM (inactive) |  | 12.7 µM (inactive) | 10 µM (inactive) | 15 µM (inactive) | 17.1 µM (inactive) | 34.7 µM (inactive) | 10.6 µM (inactive) | 2.91 µM (inactive) | 34.2 µM (inactive) |
| COc1ccc(S(=O)(=O)Nc2ccccc2C(=O)O)cc1 | > 100 µM (inactive) | > 100 µM (inactive) |  | > 100 µM (inactive) | > 100 µM (inactive) | > 100 µM (inactive) | > 100 µM (inactive) | > 100 µM (inactive) | > 100 µM (inactive) | > 100 µM (inactive) | > 100 µM (inactive) | > 100 µM (inactive) | > 100 µM (inactive) | > 100 µM (inactive) | > 100 µM (inactive) | > 100 µM (inactive) |
| Nc1nc(O)c2nc(N)n(Cc3ccccc3)c2n1 | > 100 µM (inactive) | > 100 µM (inactive) | > 100 µM (inactive) | > 100 µM (inactive) | > 100 µM (inactive) | > 100 µM (inactive) | > 100 µM (inactive) | > 100 µM (inactive) | > 100 µM (inactive) | > 100 µM (inactive) |  | > 100 µM (inactive) | > 100 µM (inactive) | > 100 µM (inactive) | > 100 µM (inactive) | > 100 µM (inactive) |
